According to US7381749B2, “Sulfonamides as inhibitors of histone deacetylase for the treatment of disease” (Kalypsys, Inc., priority 2004, dated 2008):

How the values were obtained:
HDAC in cells = assay: Cellular IC50 (cellular assays: histone hyperacetylation cytoblot / differential cytotoxicity); type: cell-based; settings: transformed cell lines (e.g. HeLa, A549, MCF-7); cell line not specified
Description: These two secondary assays evaluates a compound's ability to inhibit HDAC in cells by measuring cellular histone acetylation levels. The cytoblot facilitates quantitative EC50 information for cellular HDAC inhibition. Transformed cell lines (e.g. HeLa, A549, MCF-7) are cultured under standard media and culture conditions prior to plating.
Cells (approx. 2,500/well) are allowed to adhere 10-24 hours to wells of a 384-well Greiner PS assay plate in media containing 1-5% serum. Cells are treated with appropriate compound and specific concentrations for 0 to 24 hours. Cells are washed once with PBS (60 ul) and then fixed (95% ethanol, 5% acetic acid or 2% PFA) for 1 minute at RT (30 ul). Cells are blocked with 1% BSA for 1 hour and washed and stained with antibody (e.g. anti-Acetylated Histone H3, Upstate Biotechnology), followed by washing and incubation with an appropriate secondary antibody conjugated to HRP or fluorophore. For luminescence assays, signal is generated using Luminol substrate (Santa Cruz Biotechnology) and detected using an Aquest plate reader (Molecular Devices).
Differential Cytotoxicity Assay:
HDAC inhibitors display differential cytotoxicity toward certain transformed cell lines. Cells are cultured according to standard ATCC recommended conditions that are appropriate to each cell type. Compounds were tested for their ability to kill different cell types (normal and transformed) using the ATPlite luminescence ATP detection assay system (Perkin Elmer). Assays are run in either 384-well or 1536-well Greiner PS plates. Cells (30 ul or 5 ul, respectively) are dispensed using either multichannel pipette for 384-well plates, or proprietary Kalypsys bulk liquid dispenser for 1536-well plates. Compounds added using proprietary pin-transfer device (500 nL or 5 nL) and incubated 5 to 30 hours prior to analysis. Luminescence is measured using Aquest plate reader (Molecular Devices).

HDAC = assay: In vitro HDAC-inhibition assay (Fluor de Lys fluorescent substrate); type: biochemical; settings: HDAC enzyme source (e.g. partially purified nuclear extract or immunopurified HDAC complexes)
Description: In vitro HDAC-Inhibition Assay:
This assay measures a compound's ability to inhibit acetyl-lysine deacetylation in vitro and was used as both a primary screening method as well as for IC50 determinations of confirmed inhibitors. The assay is performed in vitro using an HDAC enzyme source (e.g. partially purified nuclear extract or immunopurified HDAC complexes) and a proprietary fluorescent substrate/developer system (HDAC Quantizyme Fluor de Lys Fluorescent Activity Assay, BIOMOL). The assay is run in 1,536-well Greiner white-bottom plates using the following volumes and order of addition: • Step 1: Enzyme (2.5 ul) source added to plate (from refrigerated container) • Step 2: Compounds (50 nl) added with pin transfer device • Step 3: Fluor de Lys (2.5 ul) substrate added, incubate at RT, 30 minutes • Step 4: Developer (5 ul) solution is added (containing TSA), to stop reaction • Step 5: Plate Reader—data collection • The deacetylated fluorophore is excited with 360 nm light and the emitted light (460 nm) is detected on an automated fluorometric plate reader (Aquest, Molecular Devices).

Row | IC50 (HDAC) [nM] | SMILES | IC50 (HDAC in cells) [nM]
1 | – | O=C(CSC(=O)c1cccnc1)c1ccc(NS(=O)(=O)c2ccc(OC(F)(F)F)cc2)cc1 [Example 02, Thionicotinic acid S-{2-oxo-2-[4-(4-trifluorometlioxy-benzenesulfonylamino)-phenyl]-ethyl}ester] | < 10000
2 | < 1000 | O=C(CSC(=O)c1ccco1)c1ccc(NS(=O)(=O)c2ccc(OC(F)(F)F)cc2)cc1 [Example 04, Furan-2-carbothioic acid S-{2-oxo-2-[4-(4-trifluoromethoxy-benzenesulfonylamino)-phenyl]-ethyl}ester] | –
3 | – | CC(=O)Oc1ccccc1C(=O)SCC(=O)c1ccc(NS(=O)(=O)c2ccc(OC(F)(F)F)cc2)cc1 [Example 06, Acetic acid 2-{2-oxo-2-[4-(4-trifluoromethoxy-benzenesulfonylamino)-phenyl]-ethylsulfanylcarbonyl}-phenyl ester] | < 1000
4 | < 1000 | CN(C)c1ccc(C(=O)SCC(=O)c2ccc(NS(=O)(=O)c3ccc(OC(F)(F)F)cc3)cc2)cc1 [Example 07] | < 10000
5 | < 10000 | COC(=O)SCC(=O)c1ccc(NS(=O)(=O)c2ccc(OC(F)(F)F)cc2)cc1 [Example 08, Thiocarbonic acid O-methyl ester S-{2-oxo-2-[4-(4-trifluoromethoxy-benzenesulfonylamino)-phenyl]-ethyl}ester] | < 1000
6 | < 1000 | O=C(CSC(=O)c1ccccn1)c1ccc(NS(=O)(=O)c2ccc(OC(F)(F)F)cc2)cc1 [Example 09, Pyridine-2-carbothioic acid S-{2-oxo-2-[4-(4-trifluoromethoxy-benzenesulfonylamino)-phenyl]-ethyl}ester] | < 1000
7 | < 1000 | NCC(=O)SCC(=O)c1ccc(NS(=O)(=O)c2ccc(OC(F)(F)F)cc2)cc1 [Example 11, Amino-thioacetic acid S-{2-oxo-2-[4-(4-trifluoromethoxy-benzenesulfonylamino)-phenyl]-ethyl}ester] | –
8 | – | CC(=O)SCC(=O)c1ccc(N(C)S(=O)(=O)c2ccc(OC(F)(F)F)cc2)cc1 [Example 12, Thioacetic acid S-(2-{4-[methyl-(4-trifluoromethoxy-benzenesulfonyl)-amino]phenyl}-2-oxo-ethyl)ester] | < 10000
9 | < 10000 | CC(=O)SCC(=O)c1ccc(N(C(C)C)S(=O)(=O)c2ccc(OC(F)(F)F)cc2)cc1 [Example 13, Thioacetic acid S-(2-{4-[isopropyl-(4-trifluoromethoxy-benzenesulfonyl)-amino]-phenyl}-2-oxo-ethyl)ester] | –
10 | < 1000 | CC(=O)SCC(=O)c1ccc(NS(=O)(=O)c2ccc(OC(F)(F)F)cc2)cc1Cl [Example 14, Thioacetic acid S-{2-[2-chloro-4-(4-trifluoromethoxy-benzenesulfonylamino)-phenyl]-2-oxo-ethyl}ester] | < 50000
11 | < 1000 | CC(=O)SCC(=O)c1ccc(NS(=O)(=O)c2ccc(OC(F)(F)F)cc2)c(F)c1 [Example 15, Thioacetic acid S-{2-[3-fluoro-4-(4-trifluoromethoxy-benzenesulfonylamino)-phenyl]-2-oxo-ethyl}ester] | –
12 | < 1000 | CC(=O)SCC(=O)c1ccc(NS(=O)(=O)c2ccc(C)cc2)cc1 [Example 16, Thioacetic acid S-{12-oxo-2-[4-(toluene-4-sulfonylamino)-phenyl]-ethyl}ester] | < 1000
13 | < 1000 | CC(=O)SCC(=O)c1ccc(NS(=O)(=O)c2cccc(C(F)(F)F)c2)cc1 [Example 17, Thioacetic acid S-{2-oxo-2-[4-(3-trifluoromethyl-benzenesulfonylamino)-phenyl]-ethyl}ester] | < 10000
14 | < 1000 | CC(=O)SCC(=O)c1ccc(NS(=O)(=O)c2ccc(F)cc2C)cc1 [Example 18, Thioacetic acid S-{2-[4-(4-fluoro-2-methyl-benzenesulfonylamino)-phenyl]-2-oxo-ethyl}ester] | < 1000
15 | < 1000 | CC(=O)SCC(=O)c1ccc(NS(=O)(=O)c2ccc(Cl)c(C(F)(F)F)c2)cc1 [Example 20, Thioacetic acid S-{2-[4-(4-chloro-3-trifluoromethyl-benzenesulfonylamino)-phenyl]-2-oxo-ethyl}ester] | < 1000
16 | < 1000 | COc1cccc(S(=O)(=O)Nc2ccc(C(=O)CSC(C)=O)cc2)c1 [Example 21, Thioacetic acid S-{2-[4-(3-methoxy-benzenesulfonylamino)-phenyl]-2-oxo-ethyl}ester] | < 1000
17 | < 1000 | CCS(=O)(=O)Nc1ccc(C(=O)CSC(C)=O)cc1 [Example 22, Thioacetic acid S-[2-(4-ethanesulfonylamino-phenyl)-2-oxo-ethyl]ester] | < 10000
18 | < 1000 | CC(=O)SCC(=O)c1ccc(NS(=O)(=O)c2cc(C)cc(C)c2)cc1 [Example 23, Thioacetic acid 2-[4-(3,5-dimethyl-benzenesulfonylamino)-phenyl]-2-oxo-ethyl ester] | < 10000
19 | < 1000 | CC(=O)SCC(=O)c1ccc(NS(=O)(=O)c2cn(C)c(C)n2)cc1 [Example 24, Thioacetic acid S-{2-[4-(1,2-dimethyl-1H-imidazole-4-sulfonylamino)-phenyl]-2-oxo-ethyl}ester] | < 10000

Row | IC50 (HDAC) [nM] | SMILES | IC50 (HDAC in cells) [nM]
20 | < 1000 | CC(=O)SCC(=O)c1ccc(NS(=O)(=O)C(C)C)cc1 [Example 25, Thioacetic acid S-{2-oxo-2-[4-(propane-2-sulfonylamino)-phenyl]-ethyl}ester] | –
21 | < 1000 | COc1ccc(S(=O)(=O)Nc2ccc(C(=O)CSC(C)=O)cc2)cc1OC [Example 27] | < 1000
22 | < 1000 | CC(=O)SCC(=O)c1ccc(NS(=O)(=O)c2ccc(Cl)cc2Cl)cc1 [Example 28] | < 1000
23 | < 1000 | CC(=O)SCC(=O)c1ccc(NS(=O)(=O)c2c(C)noc2C)cc1 [Example 29] | < 10000
24 | < 1000 | CC(=O)SCC(=O)c1ccc(NS(=O)(=O)c2sc(C)nc2C)cc1 [Example 30] | < 1000
25 | – | CC(=O)SCC(=O)c1ccc(NS(=O)(=O)c2cc(C)oc2C)cc1 [Example 31] | < 10000
26 | < 1000 | CC(=O)SCC(=O)c1ccc(NS(=O)(=O)c2ccccc2)cc1 [Example 33] | < 10000
27 | < 1000 | CC(=O)SCC(=O)c1ccc(NS(=O)(=O)c2ccc(F)cc2)cc1 [Example 34] | < 1000
28 | < 1000 | CC(=O)SCC(=O)c1ccc(NS(=O)(=O)c2ccccc2F)cc1 [Example 35] | < 1000
29 | < 1000 | CC(=O)SCC(=O)c1ccc(NS(=O)(=O)c2ccc(Cl)cc2)cc1 [Example 36] | < 1000
30 | < 1000 | CC(=O)SCC(=O)c1ccc(NS(=O)(=O)c2cccc(Cl)c2)cc1 [Example 37] | < 1000
31 | < 1000 | CC(=O)SCC(=O)c1ccc(NS(=O)(=O)c2ccccc2Cl)cc1 [Example 38] | < 1000
32 | < 1000 | CC(=O)SCC(=O)c1cccc(NS(=O)(=O)c2ccc(OC(F)(F)F)cc2)c1 [Example 39] | < 1000
33 | < 10000 | CC(=O)SCC(=O)c1ccccc1NS(=O)(=O)c1ccc(OC(F)(F)F)cc1 [Example 40] | > 50000
34 | < 1000 | CC(=O)SCC(=O)c1ccc(NS(=O)(=O)c2cccc(OC(F)(F)F)c2)cc1 [Example 41] | < 1000
35 | < 50000 | CC(=O)SCC(=O)c1sc(NS(=O)(=O)c2ccc(OC(F)(F)F)cc2)nc1C [Example 42] | –
36 | < 50000 | CC(=O)SCC(=O)c1sc(NS(=O)(=O)c2ccc(Cl)c(Cl)c2)nc1C [Example 43, Thioacetic acid-S-{2-[2-(3,4-Dichlorobenzenesulfonylamino)-4-methyl-thiazol-5-yl]-2-oxo-ethyl}-ester] | –
37 | – | CC(=O)SCC(=O)c1ccc(S(=O)(=O)Nc2ccc(OC(F)(F)F)cc2)cc1 [Example 45, Thioacetic acid S-{2-oxo-2-[4-(4-trifluoromethoxy-phenylsulfamoyl)-phenyl]-ethyl}ester] | < 10000
38 | < 1000 | CC(=O)SCC(=O)c1ccc(NS(=O)(=O)c2cccc(F)c2)cc1 [Example 46] | < 1000
